# Measurements taken from patent publication US20110237659A1, “CHROMENONE DERIVATIVES AS TRPV3 ANTAGONISTS” (GLENMARK PHARMACEUTICALS S.A., priority 2008, published 2011).
# Molecular target: T1, Human TRPV3 (Homo sapiens, UniProt Q8NET8)
# T1 construct: expressed in transfected cells; host or cells: CHO cells
# T1 sequence (Q8NET8 1-790): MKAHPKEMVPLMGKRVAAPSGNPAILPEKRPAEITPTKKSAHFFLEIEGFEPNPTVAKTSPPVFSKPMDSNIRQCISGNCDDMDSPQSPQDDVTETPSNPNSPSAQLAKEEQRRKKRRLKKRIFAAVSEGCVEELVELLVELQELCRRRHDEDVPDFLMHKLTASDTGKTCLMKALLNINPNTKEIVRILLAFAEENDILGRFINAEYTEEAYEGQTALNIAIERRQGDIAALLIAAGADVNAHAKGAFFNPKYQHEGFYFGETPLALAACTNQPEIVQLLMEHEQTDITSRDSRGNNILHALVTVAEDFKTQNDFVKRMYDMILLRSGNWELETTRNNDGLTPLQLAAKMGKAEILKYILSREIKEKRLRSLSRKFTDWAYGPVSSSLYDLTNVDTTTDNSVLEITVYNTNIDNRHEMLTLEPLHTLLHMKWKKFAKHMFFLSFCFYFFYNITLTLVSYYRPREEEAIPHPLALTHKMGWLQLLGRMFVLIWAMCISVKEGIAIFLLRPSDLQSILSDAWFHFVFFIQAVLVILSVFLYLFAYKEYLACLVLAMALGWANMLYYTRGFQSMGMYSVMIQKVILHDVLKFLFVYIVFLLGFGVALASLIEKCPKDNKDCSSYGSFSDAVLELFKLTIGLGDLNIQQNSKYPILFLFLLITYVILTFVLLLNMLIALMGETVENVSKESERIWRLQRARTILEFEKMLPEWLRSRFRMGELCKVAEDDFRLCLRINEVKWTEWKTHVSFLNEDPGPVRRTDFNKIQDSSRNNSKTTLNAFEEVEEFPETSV
# Assay: 45Calcium uptake assay: inhibition of 2-APB induced cellular uptake of radioactive calcium in human TRPV3 expressing CHO cells
# Type: cell-based
# Conditions: 2-APB 500 μM; for inhibition at 1 µM: 1.0 μM test compound, read-out: Percentage inhibition at 1.0 μM; for inhibition at 10 µM: 10.0 μM test compound, read-out: Percentage inhibition at 10.0 μM
# Text: The illustrative examples of the present invention are screened for TRPV3 activity according to a modified procedure described in (a) Tóth, A. et al. Life Sciences 2003, 73, 487-498. (b) McNamara C, R. et al. Proc. Natl. Acad. Sci. U.S.A., 2007, 104, 13525-13530. The screening of the compounds can be carried out by other methods and procedures known to persons skilled in the art.
# Screening for TRPV3 Antagonist Using the ^45Calcium Uptake Assay
# The inhibition of TRPV3 receptor activation was followed as inhibition of 2-aminoethxydiphenylborate (2-APB) induced cellular uptake of radioactive calcium. Test compounds were dissolved in dimethyl sulfoxide (DMSO) to prepare 20 mM stock solution and then diluted using plain medium with DMEM/F-12 containing 1.8 mM CaCl2 to get desired concentration. Final concentration of DMSO in the reaction was 0.5% (v/v). Human TRPV3 expressing CHO cells were grown in DMEM/F-12 medium with 10% FBS, 1% penicillin-streptomycin solution, 400 μg/mL of G-418. Cells were seeded 24 h prior to the assay in 96 well plates so as to get ˜50,000 cells per well on the day of experiment. Cells were treated with test compounds for 10 minutes followed by addition of 2-APB at a final concentration of 500 μM and 5 μCi/mL ^45Ca^+2 for 4 minutes. Cells were washed and lysed using buffer containing 1% Triton X-100, 0.1% deoxycholate and 0.1% SDS. Radioactivity in the lysate was measured in Packardt Top count after addition of liquid scintillant. Concentration response curves were plotted as a % of maximal response obtained in the absence of test antagonist. IC50 value was calculated from concentration response curve by nonlinear regression analysis using GraphPad PRISM software.
# Percentage inhibition at concentrations of 1.0 μM and 10.0 μM are given in the table along with IC50 (nM) values for selected examples.
Structure (SMILES),inhibition at 1 µM,inhibition at 10 µM,IC50
"COc1cccc(/C=C/c2oc3ccccc3c(=O)c2-c2ccc(C#N)cc2)c1OC1CCCC1 [Example 5, 4-{2-[(E)-2-(2-Cyclopentyloxy-3-methoxyphenyl)-1-ethenyl]-4-oxo-4H-3-chromenyl}benzonitrile]",71.8%,90.3%,0.15 to 1 µM
"COc1cccc(/C=C/c2oc3ccccc3c(=O)c2-c2ccc(C#N)cc2)c1O [Example 6, 4-{2-[(E)-2-(2-Hydroxy-3-methoxyphenyl)-1-ethenyl]-4-oxo-4H-3-chromenyl}-benzonitrile]",32.1%,83.9%,–
"COc1cccc(/C=C/c2oc3ccccc3c(=O)c2-c2ccc(C#N)cc2)c1OCC(C)(C)C [Example 7, 4-{2-[(E)-2-[2-(2,2-Dimethylpropoxy)-3-methoxyphenyl]-1-ethenyl]-4-oxo-4H-3-chromenyl}benzonitrile]",89.8%,93.2%,0.05 to 0.15 µM
"COc1cccc(/C=C/c2oc3ccccc3c(=O)c2-c2ccc(C#N)cc2)c1OCC(C)C [Example 8, 4-{2-[(E)-2-[2-Isobutoxy-3-methoxyphenyl)-1-ethenyl]-4-oxo-4H-3-chromenyl}benzonitrile]",89.3%,96.4%,0.05 to 0.15 µM
"COc1cccc(/C=C/c2oc3cc(F)ccc3c(=O)c2-c2ccc(C#N)cc2)c1OCC1CC1 [Example 10, 4-{2-[(E)-2-(2-Cyclopropylmethoxy-3-methoxyphenyl)-1-ethenyl]-7-fluoro-4-oxo-4H-3-chromenyl}benzonitrile]",87.3%,95.6%,0.15 to 1 µM
"COc1cccc(/C=C/c2oc3cc(F)ccc3c(=O)c2-c2ccc(C#N)cc2)c1OC1CCCC1 [Example 11, 4-{2-[(E)-2-(2-Cyclopentyloxy-3-methoxyphenyl)-1-ethenyl]-7-fluoro-4-oxo-4H-3-chromenyl}benzonitrile]",84.6%,92.6%,0.05 to 0.15 µM
"COc1cccc(/C=C/c2oc3cc(F)ccc3c(=O)c2-c2ccc(C#N)cc2)c1OCC(C)(C)C [Example 12, 4-{7-Fluoro-2-[(E)-2-(3-methoxy-2-neopentyloxyphenyl)-1-ethenyl]-4-oxo-4H-3-chromenyl}benzonitrile]",82.2%,91.2%,< 0.05 µM

# Further lines, results first:
inhibition at 1 µM,inhibition at 10 µM,IC50,Structure (SMILES)
36.7%,62.2%,–,"COc1cccc(/C=C/c2oc3ccccc3c(=O)c2-c2ccc(OC(F)(F)F)cc2)c1OCC1CC1 [Example 1, 2-[(E)-2-(2-Cyclopropylmethoxy-3-methoxyphenyl)-1-ethenyl]-3-(4-trifluoromethoxy-phenyl)-4H-4-chromenone]"
63.1%,75.4%,0.15 to 1 µM,"COc1cccc(/C=C/c2oc3ccccc3c(=O)c2-c2ccc(C(F)(F)F)cc2)c1OCC1CC1 [Example 2, 2-[(E)-2-(2-Cyclopropylmethoxy-3-methoxyphenyl)-1-ethenyl]-3-(4-trifluoromethyl-phenyl)-4H-4-chromenone]"
90.4%,94.5%,0.15 to 1 µM,"COc1cccc(/C=C/c2oc3ccccc3c(=O)c2-c2ccc(C#N)cc2)c1OCC1CC1 [Example 3, 4-{2-[(E)-2-(2-Cyclopropylmethoxy-3-methoxyphenyl)-1-ethenyl]-4-oxo-4H-3-chromenyl}benzonitrile]"
92.9%,94.8%,0.15 to 1 µM,"N#Cc1ccc(-c2c(/C=C/c3cccc(OC(F)F)c3OCC3CC3)oc3ccccc3c2=O)cc1 [Example 4, 4-(2-{(E)-2-[2-(Cyclopropylomethoxy)-3-(difluoromethoxy)phenyl]vinyl}-4-oxo-4H-3-chromenyl}benzonitrile]"
94.5%,98%,0.05 to 0.15 µM,"COc1cccc(/C=C/c2oc3ccccc3c(=O)c2-c2ccc(C#N)cc2)c1OCCC(F)(F)F [Example 9, 4-(2-{(E)-2-[3-Methoxy-2-(3,3,3-trifluoropropoxy)phenyl]-1-ethenyl}-4-oxo-4H-3-chromenyl}benzonitrile]"
